From US20200268728A1, “DRUG TARGETING CANCER STEM CELL” (Sumitomo Dainippon Pharma Co., Ltd., priority 2016, published 2020)
Counter-ions that a name gives are not always drawn. Like-named read-outs stand apart in the source and are kept apart here.

Key:
LNCap cells = assay: Combination with Example 24, inhibitory effect on sphere-forming ability (Test Example 6); assay type: cell-based; conditions: LNCap sphere culture, test compound combined with Example 24 (2-1000 nmol/L), 4 days
Description: After the culture, CellTiterGlo (Promega) was added into all of the wells, and the plate is allowed to stand at room temperature for 10 minutes to measure the intensity of luminescence of each well. […] The formula for calculating the rate is shown below.
Sphere formation rate (%)=(Lsample)/(Lcontrol)×100
The value obtained by dividing the sphere formation rate by 100 and subtracting the calculated value from 1 is defined as a sphere formation inhibitory effect. The formula for calculating the effect is shown below.
Sphere formation inhibitory effect=1−(Sphere formation rate/100)
Also, the measured cell survival rate of the combination was defined as (Ld).
The minimum value thereof (sCI) was used as the criteria for screening.

HCT-116 cells = assay: Anti-tumor effect to HCT-116 tumor-bearing mouse (Test Example 2); assay type: in vivo; conditions: oral, read-out: T/C (%); for response vs control in vivo at 150 mg/kg: dosage 150 mg/kg
Description: The present compound can be used to evaluate the anti-tumor effect thereof. A 4 to 7-week-old nude mouse (BALB/cAnNCrj-nu/nu, female, CHARLES RIVER LABORATORIES JAPAN, INC.) received intradermal transplantation of HCT-116 cells (ATCC) in an amount of 3×10^6 cells/mouse around the ventral portion. The engraftment of HCT-116 cells was observed 5 to 14 days after the transplantation, and then each compound suspended in a solvent such as 0.5% methylcellulose solution was orally administrated to the mouse in a dose of 1 to 200 mg/kg one to twice daily. The tumor volume was measured over time after the administration to evaluate the effect for reducing the tumor volume by the administration of each compound. The tumor volume can be calculated from the minor axis and the major axis of the tumor measured with a digital caliper (Mitutoyo) according to the following formula:
Tumor volume [mm^3]=0.5×minor axis [mm]×(major axis [mm])^2
The tumor volume in control administration group treated with only a solvent such as 0.5% methylcellulose solution was compared with that of the present compound administration group, and T/C value was calculated according the following formula to evaluate the anti-tumor effect of the present compound.
T/C(%)=(the tumor volume at the end of administration in the present compound administration group−the tumor volume at the start of administration in the present compound administration group)/(the tumor volume at the end of administration in the control administration group−the tumor volume at the start of administration in the control administration group)×100
The T/C values (%) of the present compound on each dosage and administration period in the HCT-116 tumor-bearing mouse are shown below.

[1] = HCT-116, 456 h, administration period 19 day

Compound: CC(O)(CS(=O)(=O)c1ccc(F)cc1)C(=O)Nc1ccc(C#N)c(C(F)(F)F)c1 (centres unmarked) [Bicalutamide]
- sCI, minimum (Ld)/(Lc) (LNCap cells): 0.421

Compound: O=C(/C=C/c1cccnc1)Nc1cn(Cc2cccc(Cl)c2)cn1 [Example 9-2, (2E)-N-(1-(3-Chlorobenzyl)-1H-imidazol-4-yl)-3-(pyridin-3-yl)prop-2-enamide dihydrochloride]
- response vs control in vivo at 150 mg/kg (HCT-116 cells; HCT-116, 384 h, administration period 16 day): 65%

Compound: COc1ccc(C(=O)Nc2cn(Cc3ccc(F)c(F)c3)cn2)cc1OC [Example 11-2]
- response vs control in vivo at 150 mg/kg (HCT-116 cells; [1]): 52%

Compound: COc1ccc(C(=O)Nc2cn(Cc3cc(F)c(F)c(F)c3)cn2)cc1OC [Example 13-2]
- response vs control in vivo at 15 mg/kg (HCT-116 cells; HCT-116, 528 h, dosage 15 mg/kg, administration period 22 day): 72%
- response vs control in vivo at 150 mg/kg (HCT-116 cells; HCT-116, 528 h, administration period 22 day): 45%

Compound: COc1ccc(C(=O)Nc2cn(Cc3cccc(Cl)c3)cn2)cc1OC [Example 10-2, N-[1-(3-Chlorobenzyl)-1H-imidazol-4-yl]-3,4-dimethoxybenzamide hydrochloride]
- response vs control in vivo at 150 mg/kg (HCT-116 cells; [1]): 53%

Compound: CNC(=O)c1ccc(N2C(=S)N(c3ccc(C#N)c(C(F)(F)F)c3)C(=O)C2(C)C)cc1F [Enzalutamide]
- sCI, minimum (Ld)/(Lc) (LNCap cells): 0.826

Compound: COc1ccc(C(=O)Nc2cn(Cc3cc(F)cc(F)c3)cn2)cc1OC [Example 12-2]
- response vs control in vivo at 150 mg/kg (HCT-116 cells; [1]): 84%
